Measured values from patent publication US12002595B2, “Separation of metal ions by liquid-liquid extraction” (priority 2016, dated 2024).
Read-outs that look alike come from different tables or passages of the source.

Experiments:
[1] = Extraction by HDEHP with 1 mM 343HOPO in 0.1 M HNO3 and 1.9 M NaNO3
Description: Aqueous phase: 1 mM 343HOPO in 0.1 M HNO3 and 1.9 M NaNO3. Organic phase: HDEHP in kerosene.
A log scale is used for clarity. See FIGS. 58A and 58B for results as a function of the phase ratio.
For Example 20—Example 24, pH measurements were performed with a glass electrode (Metrohm-Micro Combi-response to [H+]) calibrated at 25.0° C. using three NIST standards. Extraction samples were analyzed by liquid scintillation counting (LSC). The distribution coefficient, D(M), of a given metal, M, is defined in Eq. 1, where [M]organic and [M]aqueous are the respective total concentrations of M in the organic and aqueous layers, after extraction. Both concentrations are proportional to the volumetric activity (in Bq/L) determined by LSC. The separation factor, SFM1/M2, between two metals, M1 and M2, and extraction yield were calculated according to Eq. 2 and Eq. 3, respectively.
In a typical experiment, the solvent (extractant diluted in kerosene) was pre-conditioned by shaking one volume of solvent with three volumes of aqueous phase (typically HNO3) at room temperature for 1 h, thrice. For radioisotope extractions, at least 400 μL aqueous phase (typically containing HNO3, a chelator and a radioisotope) and solvent were placed in air-tight screw-capped plastic tubes, triply-contained, and shaken in a thermoshaker at 300 rpm, 25° C., for at least 30 min. Samples were then centrifuged for 5 min at 3000 rpm and phases separated before analysis. LSC analyses were performed on a Packard Tri-Carb B4430 instrument (Perkin Elmer) after mixing sample aliquots or sample dilution aliquots (10 to 200 μL) with 10 mL of scintillation cocktail (UltimaGold LLT). Samples were counted for at least 6 min and results were background subtracted. The analytical samples contained between 0 and 800,000 CPM. Mixtures of ^249Bk and ^249Cf were analyzed using α/β discrimination and energy windows were set to 0-50 keV for low-energy β particles of ^249Bk and 50-1000 keV for α particles of ^249Cf. ^243Am and ^225Ac samples were counted at secular equilibrium.

[2] = Eu(III), cited from earlier work
[3] = Extraction of plutonium(IV) by HDEHP as a function of pH with hold-back reagent; conditions: for % Extraction: 40 mM hold-back reagent, 0.5 M HDEHP
Description: (§1) All liquid-liquid extractions were conducted using a 1:1 organic to aqueous phase ratio for a total volume of 1 mL. Samples were pH adjusted by HNO3 and prepared for a final concentration of 1.0 M sodium lactate, 40 mM of hold-back reagent (160 mM in the case of the HOPO monomer), and 2.0 M Na^+. The concentration of the trivalent f-element was dependent on the availability and radioactivity of the isotopes. The organic phase consisted of 0.5 M HDEHP in kerosene. All samples were incubated in a thermostatic shaker held at 28° C. and rocked at 280 rpm for 90 minutes. To ensure complete phase separation, samples were left overnight at room temperature to equilibrate. Radioactive samples were analyzed by liquid scintillation counting (LSC). The analytical protocol consisted of diluting 10 uL of radioactive sample into 10 mL of Ultima Gold™. Ultima Gold™ is a commercially available analytical reagent commonly used for LSC. The resulting analytical samples were shaken for 10 min prior to counting on a Perkin-Elmer Packard Tri-Carb instrument (model B4430).
(§2) Data was analyzed by the distribution ratio (Dm), separation factor (SFm1/m2) and extraction percentage (% Extraction) as defined by Equations (6), (7) and (8), respectively. Equation (8) uses concentrations of the metal in each phase since the aqueous: organic ratio was 1. Both the organic and aqueous phases were analyzed after liquid-liquid extraction and phase separation. These calculation methods rely on the assumptions that no metal (M) is lost to sorption or precipitation and that no volume variation occurred during the mass transfer between the aqueous and organic phases.
In FIG. 18, aqueous phase: [ligand]=40 mM, buffer sodium lactate/sodium nitrate, organic phase: [HDEHP]=0.5 M, kerosene diluent. T=25° C. O/A=1, one contact. Initial metal concentrations: [Pu-242]=5 μM. Phases analyzed after one contact. Contact time: 30 min. Limit of detection: 0.03% of the initial Pu-242 activity. Data for separation of tetravalent metal ions from trivalent metal ions using 3,4,3-LI(1,2-HOPO) as a hold-back reagent for tetravalent metal ions are shown in TABLE 0.1.

[4] = Extraction by HDEHP as a function of pH with hold-back reagent
Description: as §1, §2
(§3) In FIG. 23, aqueous phase: [ligand]=40 mM, buffer sodium lactate/sodium nitrate. Organic phase: [HDEHP]=0.5 M, kerosene diluent. T=25° C. O/A=1, one contact. Initial metal concentrations: [Ac-225]=0.4 nM, [Am-243]=40.4 nM, or [Gd]=500 μM (spiked with Gd-153 for LSC measurements).

[5] = as above; remark: listed apart in the source
Description: as §1, §2, §3
In FIG. 17, aqueous phase: [ligand]=40 mM, buffer sodium lactate/sodium nitrate, organic phase: [HDEHP]=0.5 M, kerosene diluent. T=25° C. O/A=1, one contact. Initial metal concentrations: [Ac-225]=0.4 nM, [Am-243]=40.4 nM, or [Gd]=500 μM (spiked with Gd-153 for LSC measurements). Separation factor=ratio M1/M2 in the final organic phase/ratio M1/M2 in the initial aqueous phase. […]

[6] = highest value reached, HDEHP/343HOPO-HNO3 system

Question: What does the source list for O=C(NCCCN(CCCCN(CCCNC(=O)c1cccc(=O)n1O)C(=O)c1cccc(=O)n1O)C(=O)c1cccc(=O)n1O)c1cccc(=O)n1O [3,4,3-LI(1,2-HOPO)]?
Answer: SFBk/Lu ([1]; single step, room temperature, HDEHP-HNO3-343HOPO system): ≤ 320,000; log β111 ([2]; I=0.1 M at 25° C.): 24.8; % Extraction ([3]; pH 0.25): 0.00%; % Extraction ([3]; pH 0.85): 0.00%; % Extraction ([3]; pH 1.78): 0.00%; % Extraction ([3]; pH 2.71): 0.00%; % Extraction ([3]; pH 2.87): 0.00%; % Extraction ([3]; pH 3.62): 0.00%; % Extraction ([3]; pH 4.52): 0.00%; extraction yield of Pu^4+ (upper limit, instrumental detection limit) ([3]; value plotted on FIG. 18, all tested pH): ≤ 0.03%; extraction of Am^3+ ([4]; pH higher than 1, 40 mM ligand, 0.5 M HDEHP): No extraction; SFAc/Am [5, 6]: 130,000; SFAc/Gd [5, 6]: 1,300,000; SFAc/Am ([5]; pH 0.9 (±0.1)): 3.99 * 10^2; SFAc/Am ([5]; pH 1.5 (±0.1)): 9.06 * 10^3; SFAc/Gd ([5]; pH 1.5 (±0.1)): 6.55 * 10^2; SFAc/Am ([5]; pH 3.5 (±0.1)): 8.13 * 10^4; SFAc/Gd ([5]; pH 3.5 (±0.1)): 4.61 * 10^5; SFAc/Am ([5]; pH 4.0 (±0.1)): 1.28 * 10^5; SFAc/Gd ([5]; pH 4.0 (±0.1)): 1.33 * 10^6; extraction of actinium ([5]; pH higher than 1.5, 40 mM ligand, 0.5 M HDEHP): quantitative extraction; SFAc/Pu ([5]; single step, initial Pu/Ac ratio ~10,000 mol/mol, 40 mM chelator, 0.5 M HDEHP): at least 1,000,000; separation factor between Ac and relevant metal impurities ([5]; summary statement): 10^6

Question: For O=C(O)CN(CCN(CC(=O)O)CC(=O)O)CCN(CC(=O)O)CC(=O)O [DTPA, Diethylenetriaminepentaacetic acid, reference compound], which “separation between Bk and Cf” value ([1]; chelator in place of 343HOPO, acidic conditions) is on record?
Answer: no separation at all

Question: And the “log β111” value ([2]; I=2.0 M at 25° C.)?
Answer: 22.56

Question: And the “% Extraction” value ([3]; pH 0.40)?
Answer: 95.24%

Question: What about the “% Extraction” value ([3]; pH 1.27) of the same molecule?
Answer: 4.08%

Question: And the “% Extraction” value ([3]; pH 1.84)?
Answer: 1.17%

Question: What about the “% Extraction” value ([3]; pH 2.55) of the same molecule?
Answer: 0.63%

Question: What about the “% Extraction” value ([3]; pH 2.75) of the same molecule?
Answer: 0.73%

Question: And the “% Extraction” value ([3]; pH 3.45)?
Answer: 0.65%

Question: What about the “% Extraction” value ([3]; pH 4.29) of the same molecule?
Answer: 0.29%

Question: What about the “maximum metal extraction of Am(III)” value ([4]; around pH 1.5) of the same molecule?
Answer: 78%

Question: And the “extraction of Am(III)” value ([4]; at pH 4)?
Answer: less than 10%

Question: What about the “Extraction of Gd(III)” value ([4]; until after pH 4) of the same molecule?
Answer: above 90%

Question: And the SFAm/Ac ([5]; HDEHP/DTPA-HNO3 system)?
Answer: below 10

Question: What about the SFGd/Ac ([5]; HDEHP/DTPA-HNO3 system) of the same molecule?
Answer: < 5,300

Question: What about the “maximum metal extraction of Ac(III)” value ([5]; around pH 1.5) of the same molecule?
Answer: 49%

Question: What about the “extraction of Ac(III)” value ([5]; at pH 4) of the same molecule?
Answer: less than 10%

Question: And the SFAc/Gd ([5]; pH 0.8 (±0.1))?
Answer: <10^−3

Question: And the SFAc/Am ([5]; pH 0.9 (±0.1))?
Answer: 5.83 * 10^−2

Question: What about the SFAc/Am ([5]; pH 1.5 (±0.1)) of the same molecule?
Answer: 2.70 * 10^−1

Question: And the SFAc/Gd ([5]; pH 1.5 (±0.1))?
Answer: <10^−3

Question: And the SFAc/Am ([5]; pH 3.5 (±0.1))?
Answer: 6.86 * 10^−2

Question: What about the SFAc/Gd ([5]; pH 3.5 (±0.1)) of the same molecule?
Answer: <10^−3

Question: And the SFAc/Am ([5]; pH 4.0 (±0.1))?
Answer: 1.11 * 10^−1

Question: What about the SFAc/Gd ([5]; pH 4.0 (±0.1)) of the same molecule?
Answer: <10^−3
